Patent US10227349B2, “Pyrazolo[1,5-a]pyrimidine compound” (Eisai R&D Management Co., Ltd., priority 2016, dated 2019)

Tests used:
PAR2 = biological target: T1, PAR2 (Mus musculus, UniProt P55086); test: Measurement of PAR2 agonist (SLIGRL-NH2)-induced salivation in mouse; type: in vivo; conditions: C57BL/6J male mice, 0.3 mg/mL solution 10 mL/kg orally, 60 min before SLIGRL-NH2 i.p., saliva collected 10 min
T1 construct: orally administered to C57BL/6J male mice (Charles River), 6-10 weeks of age; tissue Charles River; host or cells: Living C57BL/6J male mice (in vivo; saliva secretion)
T1 sequence (P55086 26-399): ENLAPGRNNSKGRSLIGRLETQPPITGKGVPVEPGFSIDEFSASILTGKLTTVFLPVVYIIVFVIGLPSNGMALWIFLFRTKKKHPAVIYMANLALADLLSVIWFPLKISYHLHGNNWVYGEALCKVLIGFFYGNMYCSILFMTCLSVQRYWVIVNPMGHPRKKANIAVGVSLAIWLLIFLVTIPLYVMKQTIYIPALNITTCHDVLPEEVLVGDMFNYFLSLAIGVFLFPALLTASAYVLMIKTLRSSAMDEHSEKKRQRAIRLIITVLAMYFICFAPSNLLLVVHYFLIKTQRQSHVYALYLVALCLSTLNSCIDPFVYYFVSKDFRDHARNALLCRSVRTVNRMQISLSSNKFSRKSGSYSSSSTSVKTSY
Description: The test compound was added to a 0.5% carboxymethyl cellulose solution to which 2% DMSO was added, so as to have the final concentration of 0.3 mg/mL, thereby preparing an administration solution containing the test compound. The administration solution containing the test compound (10 mL/kg) was orally administered to C57BL/6J male mice (Charles River), 6-10 weeks of age, using an oral sonde and a syringe. Forty-five minutes after the administration of the test compound, 10 mL/kg of a 20% (w/v) urethane solution was intraperitoneal administered to the mice which were then anesthetized. Sixty minutes after the administration of the test compound, 10 mL/kg of a 0.1 mg/mL SLIGRL-NH2 (SEQ ID NO: 2) solution was intraperitoneally administered as the PAR2 agonist and a cotton ball was immediately placed in the oral cavity of the mouse to collect the saliva. Ten minutes after the administration of the PAR2 agonist, the cotton ball was removed and weighed to measure the amount of saliva secreted.
Note that Reference Example 1 in Table 4 is Compound (XIX). Additionally, Comparative Compound in Table 4 is Compound (XX).

[1] = system: DNFB-induced dermatitis in BALB/c male mice; test: Mouse dermatitis model (DNFB-induced auricle swelling); type: in vivo; conditions: 0.3 mg/mL solution 10 mL/kg orally 8 hours after DNFB induction, auricle thickness on following day
Description: The test compound was added to a 0.5% carboxymethyl cellulose solution so as to have the final concentration of 0.3 mg/mL, thereby preparing an administration solution containing the test compound. Hapten used was 2,4-dinitrofluorobenzene (DNFB, Wako Pure Chemical Industries).
Twenty-five (25) μL of a solution of DNFB diluted to 0.4% with a mixed solvent of acetone and an olive oil in a volume ratio of 2:1 was applied twice to the shaved abdominal region of BALB/c male mice (Charles River), 6-10 weeks of age, over a period of 2 days to create the sensitization. Four days after the sensitization, on the first day, 20 μL of a solution of DNFB diluted to 0.2% with a mixed solvent of acetone and an olive oil in a volume ratio of 2:1 was applied to the right auricle of the mouse to induce dermatitis. Eight hours after the induction of dermatitis, the administration solution containing the test compound (10 mL/kg) was orally administered to the mouse. On the day following the induction of dermatitis, the right auricle thickness of the mouse was measured using a thickness gauge to evaluate the action of the test compound.
Note that Reference Example 1 in Table 5 is Compound (XIX).

Row | SMILES | Inhibitory activity on the PAR2-dependent saliva secretion (%) (PAR2) | Inhibitory activity on auricle swelling (%) [1]
1 | CO[C@H]1CN(C(=O)c2cc3nc(-c4cc(F)c(Cl)c(F)c4)cc(N(C)c4c(C)cccc4F)n3n2)CC[C@H]1CC(=O)O [Example 10, 2-((3R,4S)-1-(5-(4-chloro-3,5-difluorophenyl)-7-((2-fluoro-6-methylphenyl)(methyl)amino)pyrazolo[1,5-a]pyrimidine-2-carbonyl)-3-methoxypiperidin-4-yl)acetic acid] | 92.2% | 52.9%
2 | C[C@@H](c1ccccc1)N(C)c1cc(-c2cc(F)c(F)c(F)c2)nc2cc(C(=O)N3CCC(CC(=O)O)CC3)nn12 [Reference Example 1, (S)-2-(1-(7-(methyl(1-phenylethyl)amino)-5-(3,4,5-trifluorophenyl)pyrazolo[1,5-a]pyrimidine-2-carbonyl)piperidin-4-yl)acetic acid, reference compound] | 95.9% | 22.3%
